Data taken from patent US5593988A, “Therapeutic agent for osteoporosis and diazepine compound” (Yoshitomi Pharmaceutical Industries, Ltd., priority 1991, dated 1997).

Each compound was assayed on bone resorption (parietal bone) (assay: Bone resorption-inhibitory activity (45Ca release from newborn mouse parietal bone, hPTH (1-34) stimulated, method of Raisz)). Settings: 5 μM, Table 20, average of four pairs, read-out: bone resorption-inhibitory action, % against control.
Format: cell-based, ICR mouse
From the text: The method for determining the bone resorption-inhibitory activity of the Compound (I) and the results are shown in the following.
Bone resorption-inhibitory activity
The determination of the bone resorption-inhibitory activity basically followed the method of Raisz [J. Clin. Invest., vol. 44, pp. 103-116 (1965)].
A 1-2 days old new born ICR mouse was intraperitoneally administered with 1.5μ Ci ^45 Ca (CaCl2 solution of isotope of calcium) and parietal bone was asceptically removed the next day. The parietal bone was split into two along the central sature line and one of them was used as a control and the other was used for the experiment. The bone was preincubated in 0.5 ml of a BGJb medium (Fitton-Jackson modification, GIBCO Laboratories, U.S.A.) added with the test compound to a concentration of 5 μM or 20 μM and bovine serum albumin (1 mg/ml) at 37° C. for 2 days, and further incubated in the aforementioned medium containing 50 nM hPTH (1-34) for 3 days. After the incubation, the radioactivity of ^45 Ca in the medium and in the bone was measured and the ratio (%) of ^45 Ca released from the bone into the medium was calculated. [formula]
Using the bone obtained from the same mouse and treated in the same manner without the test compound as a control, the ratio (%) against the control was calculated according to the following equation. [formula]
The average of these values obtained from four pairs from each group was calculated.
Work on `CCc1cc2c(s1)-n1c(C)nnc1C(NC(=O)Nc1ccccc1OC)N=C2c1ccc(Cl)cc1` (stereo not shown) [compound 90] yielded an inhibition at 5 µM of 34.2%.
`Cc1cccc(NC(=O)NC2N=C(c3ccccc3Cl)c3c(sc(C)c3C)-n3c(C)nnc32)c1` (stereo not shown) [compound 83] was tested, and the inhibition at 5 µM was 35%.
`CCc1cc2c(s1)-n1c(C)nnc1C(NC(=O)Nc1cccc(C)c1)N=C2c1ccccc1` (stereo not shown) [compound 88] gave an inhibition at 5 µM of 33.8%.
With `CCCCCCc1cc2c(s1)-n1c(C)nnc1C(NC(=O)Nc1cccc(C)c1)N=C2c1ccc(Cl)cc1` (stereo not shown) [compound 78] the inhibition at 5 µM was 45.4%.
Work on `CCc1cc2c(s1)-n1c(C)nnc1C(NC(=O)Nc1cccc(OC)c1)N=C2c1ccc(Cl)cc1` (stereo not shown) [compound 76] yielded an inhibition at 5 µM of 29.5%.
Compound `CCc1cc2c(s1)-n1c(C)nnc1C(NC(=O)Nc1ccccc1)N=C2c1ccc(Cl)cc1` (stereo not shown) [compound 87] has an inhibition at 5 µM of 31.6%.
`CCc1cc2c(s1)-n1c(C3CCCCC3)nnc1C(NC(=O)Nc1cccc(C)c1)N=C2c1ccccc1Cl` (stereo not shown) [compound 84] gave an inhibition at 5 µM of 65.3%.
With `CCc1cc2c(s1)-n1c(C)nnc1C(NC(=O)Nc1ccc(Cl)cc1)N=C2c1ccc(Cl)cc1` (stereo not shown) [compound 75] the inhibition at 5 µM was 47.7%.
For `CCc1cc2c(s1)-n1c(C)nnc1C(NC(=S)Nc1ccccc1)N=C2c1ccccc1Cl` (stereo not shown) [compound 93], the inhibition at 5 µM was 63.5%.

Same assay, conditions: 20 μM, Table 20, average of four pairs, read-out: bone resorption-inhibitory action, % against control
Compound `Cc1nnc2n1-c1sc(CCCc3ccc(CC(C)C)cc3)cc1C(c1ccccc1Cl)=NC2` [compound 11] has an inhibition at 20 µM of 23.4%.
`Cc1nnc2n1-c1sc3c(c1C(c1ccccc1Cl)=NC2C)CC(C(=O)N1CCOCC1)C3` (stereo not shown) [compound 54] gave an inhibition at 20 µM of 31.7%.
Work on `CC(C)Cc1ccc(CCc2cc3c(s2)-n2c(nnc2C(C)(C)C)C(C)N=C3c2ccccc2Cl)cc1` (stereo not shown) [compound 34] yielded an inhibition at 20 µM of 15.5%.
`Cc1nnc2n1-c1sc(CCC(=O)N3CCN(C(c4ccccc4)c4ccccc4)CC3)cc1C(c1ccccc1Cl)=NC2` [compound 36] gave an inhibition at 20 µM of 21.9%.
Work on `CCCCCCCCCCCc1nnc2n1-c1sc(CC)cc1C(c1ccc(C)cc1)OC2` (stereo not shown) [compound 357] yielded an inhibition at 20 µM of 24.7%.
`Cc1nnc2n1-c1sc(CCc3ccc(CC(C)C)cc3)cc1C(c1ccc(OCCN(C)C)cc1)=NC2` [compound 32] gave an inhibition at 20 µM of 16%.
For `Cc1nnc2n1-c1sc(CCc3ccc(CC(C)C)cc3)cc1C(c1ccccc1Cl)=NC2CC(C)C` (stereo not shown) [compound 43], the inhibition at 20 µM was 21.2%.
`CCCN(CCC)C(=O)C1Cc2sc3c(c2C1)C(c1ccccc1Cl)=NCc1nnc(C)n1-3` (stereo not shown) [compound 53] was tested, and the inhibition at 20 µM was 73.5%.
For `CCCC1N=C(c2ccc(Cl)cc2)c2cc(CCc3ccc(CC(C)C)cc3)sc2-n2c(C)nnc21` (stereo not shown) [compound 42], the inhibition at 20 µM was 16.9%.
Work on `CCc1cc2c(s1)-n1c(C)nnc1C(NC(=O)Nc1cccc(C)c1)N=C2c1ccccc1Cl` (stereo not shown) [compound 51] yielded an inhibition at 20 µM of 26.9%.
Compound `CCc1cc2c(s1)-n1c(CCCc3ccc(CC(C)C)cc3)nnc1COC2c1ccc(Cl)cc1` (stereo not shown) [compound 330] has an inhibition at 20 µM of 35.6%.
`CCCCCCCCCCCc1nnc2n1-c1sc(CC)cc1C(c1ccccc1)OC2` (stereo not shown) [compound 304] gave an inhibition at 20 µM of 28.6%.
With `CCCCCCCCc1ccc(CCc2cc3c(s2)-n2c(C)nnc2CN=C3c2ccccc2Cl)cc1` [compound 29] the inhibition at 20 µM was 16.4%.
For `Cc1nnc2n1-c1sc(CCc3ccc(CC(C)C)cc3)cc1C(c1ccccc1Cl)=NC2c1ccccc1` (stereo not shown) [compound 44], the inhibition at 20 µM was 15.7%.
Work on `CCc1cc2c(s1)-n1c(C)nnc1C(NC(=O)c1cc3ccccc3[nH]1)N=C2c1ccccc1Cl` (stereo not shown) [compound 48] yielded an inhibition at 20 µM of 25.7%.
`CCc1cc2c(s1)-n1c(C)nnc1C(NC(=O)c1ccccc1)N=C2c1ccccc1Cl` (stereo not shown) [compound 50] showed an inhibition at 20 µM of 26.4%.
For `CCCCCCCCCCCc1nnc2n1-c1sc(CC)cc1C(c1ccc(OCCN(C)C)cc1)OC2` (stereo not shown) [compound 354], the inhibition at 20 µM was 23.2%.
`CCCCCCCCCCCc1nnc2n1-c1sc(CC)cc1C(c1ccc(O)cc1)OC2` (stereo not shown) [compound 302] was tested, and the inhibition at 20 µM was 22.4%.

Same assay, conditions: 20 μM, Table 21, average of four pairs, read-out: bone resorption-inhibitory action, % against control
`CCCCCCCCCCCc1nnc2n1-c1ccccc1C(c1ccc(Cl)cc1)NC2` (stereo not shown) [compound 515] was tested, and the inhibition at 20 µM was 29.9%.
In the case of `CCCCCCCCCCCc1nnc2n1-c1ccccc1C(c1ccc(Cl)cc1)OC2` (stereo not shown) [compound 516], the inhibition at 20 µM is reported as 22.4%.

Same assay, conditions: Table 20, read-out: IC50 (figures in parentheses), bone resorption-inhibitory action
Compound `CCc1cc2c(s1)-n1c(C)nnc1C(NC(=O)Nc1ccccc1OC)N=C2c1ccc(Cl)cc1` (stereo not shown) [compound 90] has an IC50 of 250 nM.

Same assay, conditions: read-out: IC50 (figures in parentheses), bone resorption-inhibitory action
Compound `COc1ccccc1NC(=O)NC1N=C(c2ccccc2)c2cc(Cl)ccc2-n2c(C)nnc21` (stereo not shown) [compound 532] has an IC50 of 930 nM.
Work on `Cc1nnc2n1-c1sc(CCc3ccc(CC(C)C)cc3)cc1C(c1ccccc1Cl)=NC2C` (stereo not shown) [compound 9] yielded an IC50 of 7500 nM.

Same assay, conditions: read-out: bone resorption-inhibitory action, % against control
Work on `Cc1nnc2n1-c1ccccc1C(c1ccccc1)=NC2COC(=O)Cc1ccccc1` (stereo not shown) [compound 511] yielded an inhibition at 20 µM of 37.7%.
With `Cc1nnc2n1-c1sc(CCc3ccc(CC(C)C)cc3)cc1C(c1ccccc1)=NC2` [compound 1] the inhibition at 20 µM was 30.7%.
`Cc1cccc(N2C(=O)NC3(N=C(c4ccc(Cl)cc4)c4ccccc4-n4c(C)nnc43)C2=O)c1` (stereo not shown) [compound 531] gave an inhibition at 20 µM of 34.4%.
Compound `Cc1nnc2n1-c1ccccc1C(c1ccc(Cl)cc1)=NC2Cc1c[nH]c2ccccc12` (stereo not shown) [compound 508] has an inhibition at 20 µM of 48.1%.
Compound `COc1ccccc1NC(=O)OCC1N=C(c2ccccc2)c2ccccc2-n2c(C)nnc21` (stereo not shown) [compound 509] has an inhibition at 20 µM of 35%.
For `CCCCCCCCCCc1cc2c(s1)-n1c(C)nnc1CN=C2c1ccccc1OC` [compound 25], the inhibition at 20 µM was 17.5%.
For `Cc1nnc2n1-c1sc(CCc3ccc(CC(C)C)cc3)cc1C(c1ccccc1F)=NC2` [compound 30], the inhibition at 20 µM was 20.6%.
With `CCc1cc2c(s1)-n1c(noc1=O)CN=C2c1ccccc1Cl` [compound 66] the inhibition at 20 µM was 56.3%.
`Cc1nnc2n1-c1sc3c(c1C(c1ccccc1Cl)=N[C@H]2C)CCN(C(=O)C1CC1)C3` [compound 52] showed an inhibition at 20 µM of 29.9%.
With `CC(C)Cc1ccc(CCc2cc3c(s2)-n2cnnc2CN=C3c2ccccc2Cl)cc1` [compound 6] the inhibition at 20 µM was 30.2%.
Work on `CCCCCCc1cc2c(s1)NC(=O)CN=C2c1ccccc1Cl` [compound 60] yielded an inhibition at 20 µM of 58.6%.
`Cc1nnc2n1-c1sc(Cc3ccc(CC(C)C)cc3)cc1C(c1ccccc1Cl)=NC2` [compound 28] was tested, and the inhibition at 20 µM was 16.5%.
For `Cc1nnc2n1-c1ccccc1C(c1ccc(Cl)cc1)=NC2NC(=O)Nc1cccnc1` (stereo not shown) [compound 523], the inhibition at 20 µM was 26.7%.
With `Cc1nnc2n1-c1ccc(Cl)cc1C(c1ccccc1Cl)=NC2` [compound 68] the inhibition at 20 µM was 57.5%.
In the case of `COc1ccccc1NC(=O)NC1N=C(c2ccc(Cl)cc2)c2ccccc2-n2c(C)nnc21` (stereo not shown) [compound 502], the inhibition at 20 µM is reported as 31.8%.
`Cc1nnc2n1-c1ccccc1C(c1ccc(Cl)cc1)=NC2NC(=O)C(=O)Nc1ccccc1` (stereo not shown) [compound 530] was tested, and the inhibition at 20 µM was 28.2%.
With `Cc1nnc2n1-c1sc(CCC(=O)N3CCOCC3)cc1C(c1ccccc1Cl)=NC2C` (stereo not shown) [compound 38] the inhibition at 20 µM was 46%.
For `Cc1nnc2n1-c1ccccc1C(c1ccc(Cl)cc1)=NC2NC(=O)NC(=O)c1ccccc1` (stereo not shown) [compound 525], the inhibition at 20 µM was 26.8%.
Work on `COc1ccccc1NC(=O)NC1N=C(c2ccccc2)c2cc(Cl)ccc2-n2c(C)nnc21` (stereo not shown) [compound 532] yielded an inhibition at 20 µM of 28.1%.
With `Cc1nnc2n1-c1ccccc1C(c1ccc(Cl)cc1)=NC2NC(=O)OCc1ccccc1` (stereo not shown) [compound 504] the inhibition at 20 µM was 24.6%.
Compound `CCCCCCCCCCc1ccc2c(c1)-n1c(C)nnc1C(C)N=C2c1ccccc1` (stereo not shown) [compound 520] has an inhibition at 20 µM of 22.5%.
Work on `CCc1cc2c(s1)-n1ccnc1CN=C2c1ccccc1Cl` [compound 67] yielded an inhibition at 20 µM of 55.3%.
In the case of `Cc1nnc2n1-c1sc(CCCN3CCOCC3)cc1C(c1ccccc1Cl)=NC2C` (stereo not shown) [compound 40], the inhibition at 20 µM is reported as 32.8%.
In the case of `Cc1nnc2n1-c1sc(CCc3ccc(CC(C)C)cc3)cc1C(c1cccc(Cl)c1)=NC2` [compound 5], the inhibition at 20 µM is reported as 26.7%.
`Cc1nnc2n1-c1sc(CCc3ccc(CC(C)C)cc3)cc1C(c1ccc(O)cc1)=NC2` [compound 31] gave an inhibition at 20 µM of 26.4%.
In the case of `CCCCCCCCc1cc2c(s1)N(CCN(C)C)C(=O)CN=C2c1ccccc1Cl` [compound 62], the inhibition at 20 µM is reported as 27.4%.
Work on `CCCCCCCCCCCc1nnc2n1-c1ccccc1C(c1ccc(Cl)cc1)=NC2` [compound 513] yielded an inhibition at 20 µM of 43.3%.
`Cc1cccc(NC(=O)NC2N=C(c3ccc(Cl)cc3)c3ccccc3-n3c(C)nnc32)c1` (stereo not shown) [compound 503] was tested, and the inhibition at 20 µM was 30.4%.
In the case of `Cc1nnc2n1-c1sc(CCc3ccc(CC(C)C)cc3)cc1C(c1ccccc1Cl)=NC2C` (stereo not shown) [compound 9], the inhibition at 20 µM is reported as 23.7%.
Compound `Cc1cccc(NC(=O)NC2N=C(c3cccs3)c3ccccc3-n3c(C)nnc32)c1` (stereo not shown) [compound 521] has an inhibition at 20 µM of 29.6%.
In the case of `Cc1nnc2n1-c1ccc(Cl)cc1C(c1ccccc1)=NC2` [compound 69], the inhibition at 20 µM is reported as 21.9%.
For `Cc1ccc(S(=O)(=O)OCC2N=C(c3ccccc3)c3ccccc3-n3c(C)nnc32)cc1` (stereo not shown) [compound 518], the inhibition at 20 µM was 45.4%.
For `CCc1cc2c(s1)-n1c(C)nnc1C(OC(=O)Nc1cccc(C)c1)N=C2c1ccc(OC)cc1` (stereo not shown) [compound 257], the inhibition at 20 µM was 27.1%.
`CCCCCCCCCCc1ccc2c(c1)C(c1ccccc1)=NC(C)c1nnc(C)n1-2` (stereo not shown) [compound 519] gave an inhibition at 20 µM of 21.1%.
For `Cc1nnc2n1-c1ccccc1C(c1ccc(Cl)cc1)=NC2NS(=O)(=O)Cc1ccccc1` (stereo not shown) [compound 507], the inhibition at 20 µM was 35.6%.
For `Cc1cccc(NC(=O)NCC2N=C(c3ccc(Cl)cc3)c3ccccc3-n3c(C)nnc32)c1` (stereo not shown) [compound 506], the inhibition at 20 µM was 32.5%.
`COc1ccccc1NC(=O)NCC1N=C(c2ccc(Cl)cc2)c2ccccc2-n2c(C)nnc21` (stereo not shown) [compound 505] gave an inhibition at 20 µM of 53.5%.
Compound `Cc1nnc2n1-c1ccccc1C(c1ccc(Cl)cc1)=NC2NC(=O)Nc1ccccn1` (stereo not shown) [compound 522] has an inhibition at 20 µM of 32.8%.
